Experimental findings from patent US20210228566A1, “METHODS OF TREATING A NEUROLOGICAL OR PSYCHIATRIC DISORDER” (priority 2018, published 2021) are described below.

In one series the target is T1, human VMAT1 transporter (Homo sapiens, UniProt P54219).
T1 construct: expressed in transfected cells
T1 sequence (P54219 1-525): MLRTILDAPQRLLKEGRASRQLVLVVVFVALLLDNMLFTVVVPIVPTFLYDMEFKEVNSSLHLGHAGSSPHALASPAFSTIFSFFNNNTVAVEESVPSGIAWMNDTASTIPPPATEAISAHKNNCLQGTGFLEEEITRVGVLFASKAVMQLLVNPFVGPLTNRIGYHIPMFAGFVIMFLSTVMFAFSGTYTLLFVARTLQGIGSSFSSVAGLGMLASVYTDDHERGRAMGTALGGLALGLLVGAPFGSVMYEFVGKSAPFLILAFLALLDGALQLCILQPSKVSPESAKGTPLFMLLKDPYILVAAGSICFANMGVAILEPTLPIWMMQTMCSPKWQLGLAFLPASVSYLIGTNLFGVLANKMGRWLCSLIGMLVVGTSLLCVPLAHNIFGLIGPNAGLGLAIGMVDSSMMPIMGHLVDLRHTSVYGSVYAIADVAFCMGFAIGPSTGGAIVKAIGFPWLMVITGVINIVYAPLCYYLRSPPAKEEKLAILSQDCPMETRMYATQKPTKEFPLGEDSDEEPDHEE
The series can be described thus: uptake in cells expressing VMAT1. The class given is cell-based. The settings on record: for inhibitory activity on uptake through VMAT1: concentrations up to 10 μM. As to the method:
None of the TBZ or VBZ metabolites had any affinity for the monoamine transporters DAT, SERT or NET. To complete the selectivity profile for VMAT2, the functional activity for the human VMAT1 transporter of these compounds was tested in cells expressing VMAT1.

Series [1] can be described thus: plasma concentrations of circulating metabolites. The class given is in vivo. The settings on record: after VBZ.
Series [2] in a line: ptosis, in vivo surrogate measure.
Series [3] is described as follows: prolactin release, in vivo surrogate measure.
Series [4] is described as follows: case reports of hypersensitivity and dermatological reactions. The class given is in vivo, human. The text has this: A total of 17 cases of hypersensitivity reaction and/or dermatological findings and evidence for possible causal relationship with VBZ have been reported either spontaneously (6) or after solicitation (11). Of these 17 cases, 14 cases had both hypersensitivity reaction with dermatological findings (5 were serious and 9 were non-serious).
In these 14 cases, there was a reasonable temporal relationship between the initiation of the drug and the onset of events. In 1 case, both dechallenge and rechallenge was positive. In 2 cases, the events worsened when the drug was continued and the events resolved on discontinuation of VBZ. In 3 cases, dechallenge was considered as positive. In 7 cases, the event resolved or was resolving following discontinuation of drug and receiving appropriate treatment, implying a causal association. Additionally, among these 7 cases, there was 1 case in which the event re-occurred on readministration of the drug. In the remaining 1 case, the events started immediately after starting VBZ, the subject continued taking VBZ and the event continued; therefore, a causal association between the drug and the event could not be ruled out.
Of the 17 cases, there were 2 cases in which the patients experienced hypersensitivity reaction with evidence for a possible causal relationship with VBZ, but without dermatological findings. Both these cases were non-serious. In 1 case, dechallenge was positive and in another case, the event re-occurred with their second dose of drug, implying a causal association between the drug and the events.
Of the 17 cases, there was 1 case in which the patient experienced only dermatological findings with evidence for a possible causal relationship to VBZ, but without evidence of other hypersensitivity reaction. This case was non-serious and dechallenge was positive in this case. In view of the information reported in these 17 cases there appears to be a possible causal relationship between the events and administration of VBZ. […] 2017.
Based on the case reports received through 10 Oct.

Consider `COc1cc2c(cc1OC)[C@H]1C[C@@H](OC(=O)[C@@H](N)C(C)(C)O)[C@H](CC(C)C)CN1CC2` [NBI-136110], for which, on human VMAT1 transporter, the “effect on uptake through VMAT1” value is on record as “no significant effect on the uptake of monoamines through VMAT1” and the “inhibitory activity on uptake through VMAT1” value (from here on “inhibitory activity”) is on record as “no significant inhibitory activity”. For the same molecule, in series [1], the “plasma half-life of metabolite” value is “half-lives similar to VBZ”.
Regarding `COc1cc2c(cc1OC)[C@H]1C[C@@H](O)[C@H](CC(C)C)CN1CC2` [R,R,R-DHTBZ, (2R, 3R,11bR)-3-isobutyl-9,10-dimethoxy-1,3,4,6,7,11b-hexahydro-2H-pyrido[2,1-a]isoquinolin-2-ol], at human VMAT1 transporter, the “effect on uptake through VMAT1” value is reported as “no significant effect on the uptake of monoamines through VMAT1” and the “inhibitory activity” value was “no significant inhibitory activity”. In series [2], the ptosis result is on record as “induced ptosis in an equivalent manner”. In addition, the serum prolactin levels entry in series [3] is reported as “induced a similar increase in serum prolactin levels as TBZ”. For the same molecule, in series [1], the “plasma half-life of metabolite” value is given as “half-lives similar to VBZ”.
Turning to `COc1cc2c(cc1OC)C1CC(=O)C(CC(C)C)CN1CC2` (stereo not shown) [TBZ, Tetrabenazine, reference compound], at human VMAT1 transporter, the “effect on uptake through VMAT1” value is given as “no significant effect on the uptake of monoamines through VMAT1” and the “inhibitory activity” value is “no significant inhibitory activity”. In addition, the ptosis result in series [2] is “induced ptosis in an equivalent manner”.
For `COc1cc2c(cc1OC)[C@H]1C[C@@H](OC(=O)[C@@H](N)C(C)C)[C@H](CC(C)C)CN1CC2` [Valbenazine, (S)-2-amino-3-methyl-butyric acid (2R, 3R,11bR)-3-isobutyl-9,10-dimethoxy-1,3,4,6,7,11b-hexahydro-2H-pyrido[2,1-a]isoquinolin-2-yl ester], at human VMAT1 transporter, the “effect on uptake through VMAT1” value is reported as “no significant effect on the uptake of monoamines through VMAT1” and the “inhibitory activity” value is on record as “no significant inhibitory activity”. The ptosis entry in series [2] is recorded as “induced ptosis in an equivalent manner”. In series [4] (of the 14 cases), the “non-serious cases with hypersensitivity reaction and dermatological findings” value stood at 9 cases; the “serious cases with hypersensitivity reaction and dermatological findings” value was determined as 5 cases. Besides, the “cases with both hypersensitivity reaction with dermatological findings” value in series [4] (of the 17 cases) amounted to 14 cases. Moreover, in series [4] (of the 17 cases, non-serious), the “cases of hypersensitivity reaction without dermatological findings” value is given as 2 cases and the “cases with only dermatological findings” value is on record as 1 case. Moreover, in series [4] (reported spontaneously (6) or after solicitation (11), through 10 Oct. 2017), the “cases of hypersensitivity reaction and/or dermatological findings with evidence for possible causal relationship” value is reported as 17 cases. In series [4] (through 10 Oct. 2017), the “severe hypersensitivity or dermatological reactions suggesting Stevens Johnson Syndrome, Toxic Epidermal Necrolysis, or Drug Rash with Eosinophilia and Systemic Symptoms” value was “no cases”.
In the case of `COC(=O)[C@H]1[C@H]2C[C@@H]3c4[nH]c5cc(OC)ccc5c4CCN3C[C@H]2C[C@@H](OC(=O)c2cc(OC)c(OC)c(OC)c2)[C@@H]1OC` [reserpine, reference compound], the “effect on uptake through VMAT1” value at human VMAT1 transporter is on record as “substantially inhibited uptake through VMAT1”.
